Test results taken from US11840686B2, “Modulation of prekallikrein (PKK) expression” (Ionis Pharmaceuticals, Inc., priority 2013, dated 2023).
Strand notation (5' to 3'): a small letter for the sugar, then the base; units joined by * are phosphorothioate-linked, units joined directly phosphodiester-linked; [ ] holds rarer units or linkages, { } end groups; capitals alone tell only the bases. e = 2'-O-(2-methoxyethyl) (MOE); k = constrained ethyl (cEt); [5mC] = 5-methylcytosine; d = 2'-deoxy (DNA)

How the values were obtained:
human PKK mRNA [1] = experiment: Antisense inhibition of human PKK mRNA in HepaRG cells, 1,000 nM, MOE/deoxy/cEt oligonucleotides (Example 3); type: cell-based; conditions: HepaRG cells, electroporation with 1,000 nM antisense oligonucleotide
How it was run: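 Readout is percent PKK mRNA reduction against untreated controls, by real-time PCR (RTS3454) adjusted for total RNA via RIBOGREEN. Oligonucleotides, phosphorothioate gapmers of 16 nucleosides with cEt, MOE and deoxy sugars, were delivered at 1,000 nM by electroporation to 20,000 HepaRG cells/well for roughly 24 h.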

human PKK mRNA [2] = experiment: Dose-dependent antisense inhibition of human PKK in HepaRG cells, 0.11-3.00 uM (Example 6); type: cell-based; conditions: for IC50: 0.11-3.00 μM; for percent inhibition of PKK mRNA, 0.11 μM / percent inhibition of PKK mRNA, 0.33 μM / percent inhibition of PKK mRNA, 1.00 μM / percent inhibition of PKK mRNA, 3.00 μM: electroporation, approx. 16 hours, relative to untreated control cells
Method: Cells were plated at a density of 20,000 cells per well and transfected using electroporation with 0.11 μM, 0.33 μM, 1.00 μM, and 3.00 μM concentrations of antisense oligonucleotide. After a treatment period of approximately 16 hours, RNA was isolated from the cells and PKK mRNA levels were measured by quantitative real-time PCR. Human PKK primer probe set RTS3454 was used to measure mRNA levels. PKK mRNA levels were adjusted according to total RNA content, as measured by RIBOGREEN®. The antisense oligonucleotides were tested in a series of experiments that had similar culture conditions.
The half maximal inhibitory concentration (IC50) of each oligonucleotide is also presented.

[3] = Table 20, approximately 24 hours, PKK mRNA by RT-PCR (RTS3454), relative to untreated control cells
[4] = Table 22 experiment, approx. 24 hours, PKK mRNA by RT-PCR (RTS3454), relative to untreated control cells
[5] = approximately 24 hours, primer probe set RTS3454, relative to untreated control cells, experiment of Table 23

Substance: 547851 (antisense eT*eA*kA*dA*dT*dG*dT*d[5mC]*dT*d[5mC]*dG*dA*dT*kG*kG*e[5mC]) [compound 547851]
- % inhibition (human PKK mRNA [1]; [3]): 93%
- % inhibition (human PKK mRNA [1]; [4]): 84%
- IC50 (human PKK mRNA [2]): 400 nM
- percent inhibition of PKK mRNA, 0.11 μM (human PKK mRNA [2]): 16%
- percent inhibition of PKK mRNA, 0.33 μM (human PKK mRNA [2]): 46%
- percent inhibition of PKK mRNA, 1.00 μM (human PKK mRNA [2]): 83%

Substance: 547857 (antisense e[5mC]*eT*k[5mC]*dA*dT*dA*dT*d[5mC]*dA*dA*d[5mC]*dT*d[5mC]*k[5mC]*kT*eT) [compound 547857]
- % inhibition (human PKK mRNA [1]; [4]): 84%
- IC50 (human PKK mRNA [2]): 200 nM
- percent inhibition of PKK mRNA, 0.11 μM (human PKK mRNA [2]): 36%
- percent inhibition of PKK mRNA, 0.33 μM (human PKK mRNA [2]): 66%
- percent inhibition of PKK mRNA, 1.00 μM (human PKK mRNA [2]): 77%
- percent inhibition of PKK mRNA, 3.00 μM (human PKK mRNA [2]): 93%

Substance: 547859 (antisense e[5mC]*e[5mC]*kT*d[5mC]*dT*d[5mC]*dA*dT*dA*dT*d[5mC]*dA*dA*k[5mC]*kT*e[5mC]) [compound 547859]
- % inhibition (human PKK mRNA [1]; [3]): 77%
- % inhibition (human PKK mRNA [1]; [4]): 88%
- IC50 (human PKK mRNA [2]): 300 nM
- percent inhibition of PKK mRNA, 0.11 μM (human PKK mRNA [2]): 29%
- percent inhibition of PKK mRNA, 0.33 μM (human PKK mRNA [2]): 56%
- percent inhibition of PKK mRNA, 1.00 μM (human PKK mRNA [2]): 83%
- percent inhibition of PKK mRNA, 3.00 μM (human PKK mRNA [2]): 78%

Substance: 547861 (antisense eA*e[5mC]*kT*d[5mC]*d[5mC]*dT*d[5mC]*dT*d[5mC]*dA*dT*dA*dT*k[5mC]*kA*eA) [compound 547861]
- % inhibition (human PKK mRNA [1]; [3]): 0%
- % inhibition (human PKK mRNA [1]; [4]): 57%
- IC50 (human PKK mRNA [2]): 500 nM
- percent inhibition of PKK mRNA, 0.11 μM (human PKK mRNA [2]): 7%
- percent inhibition of PKK mRNA, 0.33 μM (human PKK mRNA [2]): 40%
- percent inhibition of PKK mRNA, 1.00 μM (human PKK mRNA [2]): 75%
- percent inhibition of PKK mRNA, 3.00 μM (human PKK mRNA [2]): 84%

Substance: 547862 (antisense eG*eA*k[5mC]*dT*d[5mC]*d[5mC]*dT*d[5mC]*dT*d[5mC]*dA*dT*dA*kT*k[5mC]*eA) [compound 547862]
- % inhibition (human PKK mRNA [1]; [3]): 22%
- % inhibition (human PKK mRNA [1]; [4]): 88%
- IC50 (human PKK mRNA [2]): 300 nM
- percent inhibition of PKK mRNA, 0.11 μM (human PKK mRNA [2]): 26%
- percent inhibition of PKK mRNA, 0.33 μM (human PKK mRNA [2]): 71%
- percent inhibition of PKK mRNA, 1.00 μM (human PKK mRNA [2]): 69%

Substance: 547870 (antisense e[5mC]*eT*kA*dA*d[5mC]*d[5mC]*dT*dT*dA*dG*dA*d[5mC]*dA*k[5mC]*kA*eT) [compound 547870]
- % inhibition (human PKK mRNA [1]; [3]): 89%
- % inhibition (human PKK mRNA [1]; [4]): 83%
- IC50 (human PKK mRNA [2]): 600 nM
- percent inhibition of PKK mRNA, 0.11 μM (human PKK mRNA [2]): 0%
- percent inhibition of PKK mRNA, 0.33 μM (human PKK mRNA [2]): 44%
- percent inhibition of PKK mRNA, 1.00 μM (human PKK mRNA [2]): 80%
- percent inhibition of PKK mRNA, 3.00 μM (human PKK mRNA [2]): 97%

Substance: 547877 (antisense eA*eA*k[5mC]*dA*d[5mC]*dT*dG*d[5mC]*dT*dA*dA*d[5mC]*d[5mC]*kT*kT*eA) [compound 547877]
- % inhibition (human PKK mRNA [1]; [3]): 81%
- % inhibition (human PKK mRNA [1]; [4]): 93%
- IC50 (human PKK mRNA [2]): 200 nM
- percent inhibition of PKK mRNA, 0.11 μM (human PKK mRNA [2]): 29%
- percent inhibition of PKK mRNA, 0.33 μM (human PKK mRNA [2]): 66%
- percent inhibition of PKK mRNA, 1.00 μM (human PKK mRNA [2]): 83%

Substance: 547922 (eT*eG*kG*dA*dG*dT*dG*dA*dG*dA*dA*d[5mC]*d[5mC]*k[5mC]*kT*eG; antisense) [compound 547922]
- % inhibition (human PKK mRNA [1]; [5]): 79%
- percent inhibition of PKK mRNA, 0.11 μM (human PKK mRNA [2]): 67%
- percent inhibition of PKK mRNA, 0.33 μM (human PKK mRNA [2]): 75%
- percent inhibition of PKK mRNA, 1.00 μM (human PKK mRNA [2]): 81%
- percent inhibition of PKK mRNA, 3.00 μM (human PKK mRNA [2]): 92%

Substance: 547942 (eG*eG*kT*dG*dT*dG*d[5mC]*d[5mC]*dA*d[5mC]*dT*dT*dT*k[5mC]*kA*eG; antisense) [compound 547942]
- % inhibition (human PKK mRNA [1]; [5]): 85%
- IC50 (human PKK mRNA [2]): 300 nM
- percent inhibition of PKK mRNA, 0.11 μM (human PKK mRNA [2]): 25%
- percent inhibition of PKK mRNA, 0.33 μM (human PKK mRNA [2]): 51%
- percent inhibition of PKK mRNA, 1.00 μM (human PKK mRNA [2]): 91%

Substance: 547943 (eT*eG*kG*dT*dG*dT*dG*d[5mC]*d[5mC]*dA*d[5mC]*dT*dT*kT*k[5mC]*eA; antisense) [compound 547943]
- % inhibition (human PKK mRNA [1]; [5]): 83%
- IC50 (human PKK mRNA [2]): 200 nM
- percent inhibition of PKK mRNA, 0.11 μM (human PKK mRNA [2]): 33%
- percent inhibition of PKK mRNA, 0.33 μM (human PKK mRNA [2]): 70%
- percent inhibition of PKK mRNA, 1.00 μM (human PKK mRNA [2]): 87%
- percent inhibition of PKK mRNA, 3.00 μM (human PKK mRNA [2]): 90%

Substance: 547946 (eG*eA*kA*d[5mC]*dT*dT*dG*dG*dT*dG*dT*dG*d[5mC]*k[5mC]*kA*e[5mC]; antisense) [compound 547946]
- % inhibition (human PKK mRNA [1]; [5]): 81%
- IC50 (human PKK mRNA [2]): 500 nM
- percent inhibition of PKK mRNA, 0.11 μM (human PKK mRNA [2]): 0%
- percent inhibition of PKK mRNA, 0.33 μM (human PKK mRNA [2]): 47%
- percent inhibition of PKK mRNA, 1.00 μM (human PKK mRNA [2]): 74%

Substance: 547947 (eG*eG*kA*dA*d[5mC]*dT*dT*dG*dG*dT*dG*dT*dG*k[5mC]*k[5mC]*eA; antisense) [compound 547947]
- % inhibition (human PKK mRNA [1]; [5]): 80%
- IC50 (human PKK mRNA [2]): 300 nM
- percent inhibition of PKK mRNA, 0.11 μM (human PKK mRNA [2]): 24%
- percent inhibition of PKK mRNA, 0.33 μM (human PKK mRNA [2]): 58%
- percent inhibition of PKK mRNA, 1.00 μM (human PKK mRNA [2]): 81%
- percent inhibition of PKK mRNA, 3.00 μM (human PKK mRNA [2]): 93%
